What was measured:
Estrogen receptor [1] = target: T1, Estrogen receptor (Rattus norvegicus, UniProt P06211)
T1 sequence (P06211 whole entry): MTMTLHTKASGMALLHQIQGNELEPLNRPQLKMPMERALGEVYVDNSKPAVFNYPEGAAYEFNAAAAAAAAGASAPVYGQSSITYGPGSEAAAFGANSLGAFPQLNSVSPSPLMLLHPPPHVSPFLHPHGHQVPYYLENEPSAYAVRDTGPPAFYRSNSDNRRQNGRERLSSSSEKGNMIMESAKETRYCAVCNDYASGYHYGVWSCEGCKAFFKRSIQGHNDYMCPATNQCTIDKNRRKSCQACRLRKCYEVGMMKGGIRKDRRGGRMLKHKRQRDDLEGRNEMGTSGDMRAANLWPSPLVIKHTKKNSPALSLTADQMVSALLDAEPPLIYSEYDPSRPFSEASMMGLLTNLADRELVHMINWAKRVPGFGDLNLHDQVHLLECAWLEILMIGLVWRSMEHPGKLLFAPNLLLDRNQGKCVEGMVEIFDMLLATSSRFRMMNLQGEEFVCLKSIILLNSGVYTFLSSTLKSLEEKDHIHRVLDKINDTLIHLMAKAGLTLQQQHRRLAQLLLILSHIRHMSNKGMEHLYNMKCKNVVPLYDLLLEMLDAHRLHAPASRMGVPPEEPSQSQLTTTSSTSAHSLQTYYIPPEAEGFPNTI
Description: Binding affinity for rat estrogen receptor alpha

Estrogen receptor beta = Estrogen receptor beta (Rattus norvegicus, UniProt Q62986)
Description: Binding affinity for rat estrogen receptor beta

Estrogen receptor [2] = target: T2, Estrogen receptor (Homo sapiens, UniProt Q92731+P03372); settings: mcf7
Description: Half maximal inhibitory concentration against estrogen-induced proliferation of MCF-7 breast cells by 10 pM E2

Estrogen receptor [3] = target: T2, Estrogen receptor; settings: ishikawa
Description: Inhibitory concentration against estrogen-induced proliferation of Ishikawa uterine cells by 1 nM E2

Chain of Estrogen receptor beta (Q62986 whole entry): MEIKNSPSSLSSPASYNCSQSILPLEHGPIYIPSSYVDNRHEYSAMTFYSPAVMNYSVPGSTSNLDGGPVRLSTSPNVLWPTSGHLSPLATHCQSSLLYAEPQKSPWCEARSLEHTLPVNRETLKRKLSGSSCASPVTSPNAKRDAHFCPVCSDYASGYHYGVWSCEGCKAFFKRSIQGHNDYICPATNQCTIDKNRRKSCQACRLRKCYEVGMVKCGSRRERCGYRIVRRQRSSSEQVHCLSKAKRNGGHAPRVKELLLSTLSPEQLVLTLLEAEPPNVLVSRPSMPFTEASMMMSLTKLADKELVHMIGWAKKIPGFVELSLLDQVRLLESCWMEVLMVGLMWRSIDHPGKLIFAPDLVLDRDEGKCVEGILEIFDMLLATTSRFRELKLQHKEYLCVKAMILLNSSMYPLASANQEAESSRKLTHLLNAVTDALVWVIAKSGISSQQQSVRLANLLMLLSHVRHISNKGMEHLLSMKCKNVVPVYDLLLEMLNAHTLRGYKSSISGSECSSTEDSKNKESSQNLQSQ

Row | SMILES | Ki (Estrogen receptor [1]) [nM] | Ki (Estrogen receptor beta) [nM] | IC50 (Estrogen receptor [2]) [nM] | IC50 (Estrogen receptor [3]) [nM]
1 | Cl.Oc1ccc(-c2ccc3cc(O)ccc3c2Cc2ccc(OCCN3CCCCC3)cc2)cc1 | 0.2 | 0.7 | 0.2 | 1.14
2 | Cl.Oc1ccc2c(Oc3ccc(OCCN4CCCCC4)cc3)c(-c3ccc(F)cc3)ccc2c1 | 0.25 | 0.3 | 0.34 | 3.18
3 | CS(=O)(=O)c1ccc(-c2ccc3cc(O)ccc3c2Cc2ccc(OCCN3CCCCC3)cc2)cc1.Cl | 1.15 | 24.1 | 3.4 | 4.78

Source: ChEMBL document CHEMBL1141131, “A selective estrogen receptor modulator designed for the treatment of uterine leiomyoma with unique tissue specificity for uterus and ovaries in rats” (J Med Chem, 2005)
